Usually EC50 stands for the concentration needed to bring the measured effect to its halfway point.

From US12122761B2, “2-azaspiro[3.4]octane derivatives as M4 agonists” (NOVARTIS AG, priority 2019, dated 2024) come the findings set out here.

Each structure is given as a SMILES string.

Assay [1] has as its target T1, human cloned CHRM4 receptor (M4_CHO cells) (Homo sapiens, UniProt P08173).
T1 construct: expressed in transfected cells; host or cells: CHO-K1
T1 sequence (P08173 1-479): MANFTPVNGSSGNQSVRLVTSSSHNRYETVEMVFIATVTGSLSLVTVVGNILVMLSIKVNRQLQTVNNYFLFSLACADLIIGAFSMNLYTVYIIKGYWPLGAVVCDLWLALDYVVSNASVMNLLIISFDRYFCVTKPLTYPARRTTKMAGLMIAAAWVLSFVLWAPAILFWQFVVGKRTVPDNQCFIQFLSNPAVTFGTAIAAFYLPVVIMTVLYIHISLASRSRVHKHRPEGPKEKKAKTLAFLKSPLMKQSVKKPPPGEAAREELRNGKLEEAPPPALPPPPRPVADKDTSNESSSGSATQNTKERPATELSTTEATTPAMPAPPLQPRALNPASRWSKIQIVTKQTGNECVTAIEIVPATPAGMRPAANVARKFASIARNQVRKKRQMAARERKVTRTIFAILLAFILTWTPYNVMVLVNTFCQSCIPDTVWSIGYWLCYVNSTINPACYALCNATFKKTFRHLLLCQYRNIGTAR
In words: CHRM4 Ca++ Flux Assay (agonist mode, FDSS 7000EX). In kind it is cell-based. As to conditions: for M4 FDSS PA: Percent Activity; for EC50: geometric mean if tested more than once, read-out: M4 FDSS EC50. Here is the method:
The above examples were characterized by measuring the intracellular mobilization of Ca++ ions caused by signaling events mediated by the receptor. The Intra-cellular Calcium flux levels were captured by the highly sensitive Ca++ indicator, Calcium Assay Kit (BD Biosciences, Catalog Number 640178). The fluorescent activity from all receptors were monitored by the fluorescent imager, FDSS 7000EX (Hamamatsu) over a span of 3 minutes.
CHO-K1 cells stably expressing the human cloned CHRM4 receptor (M4_CHO cells) were grown and maintained in a monolayer culture with F12/HAM (Life Technologies) supplemented with 10% Fetal Bovine Serum, 1× Pen-Strep, and 0.4 mg/mL Geneticin in a humidified atmosphere (5% CO2) at 37° C. The cultures were grown to 80-90% confluency in T150 flasks (Corning) and washed with 1×DPBS then lifted with 0.05% Trypsin (Life Technologies). The cells were harvested in growth media then spun (1K rpm, 3 minutes) and cryopreserved using Recovery Cell Culture Freezing Media (Gibco Technologies). Cells were stored in liquid nitrogen and thawed a day before the assay.
Prior to the day of the assay, stable M4_CHO cells were thawed and plated on 384 well black walled clear bottom TC treated plates (Greiner Cat #781091) at 12K cells/well using F12/HAM Media supplemented with 10% FBS (Life Technologies) and kept overnight in a humidified atmosphere (5% CO2) at 37° C. The next day, cells were loaded with […] Ca^++ dye (BD Biosciences) using Loading Buffer (HBSS +Ca/+Mg, 20 mM HEPES, 2.5 mM Probenecid) and placed back in cell incubator for a minimum of 1 hour. After incubation, the dye was replaced with 45 μL Assay Buffer (HBSS −Ca/−Mg, 20 mM HEPES, 2.5 mM Probenecid) supplemented with 20 μM ATP (Sigma Aldrich) and kept at room temperature in the dark for 60 minutes before running on a cell imager. The FDSS 7000EX (Hamamatsu) was used to capture Ca^++ traces for a span of 3 minutes from cells treated with 11 point dose of compound in triplicate in order to generate dose response curves in agonist mode. All compounds were serially diluted in DMSO then prepared in Assay Buffer for Ca^++ flux studies. The dose response curves were generated from the average of triplicate wells obtained from each data point and used a non-linear regression of four parameter dose response algorithm. The Percent Activity (PA) was measured to EC100 of Carbachol.

Assay [2] deals with T2, human cloned CHRM3 receptor (M3_CHO cells) (Homo sapiens, UniProt P20309).
T2 construct: expressed in transfected cells; host or cells: CHO-K1
T2 sequence (P20309 whole entry): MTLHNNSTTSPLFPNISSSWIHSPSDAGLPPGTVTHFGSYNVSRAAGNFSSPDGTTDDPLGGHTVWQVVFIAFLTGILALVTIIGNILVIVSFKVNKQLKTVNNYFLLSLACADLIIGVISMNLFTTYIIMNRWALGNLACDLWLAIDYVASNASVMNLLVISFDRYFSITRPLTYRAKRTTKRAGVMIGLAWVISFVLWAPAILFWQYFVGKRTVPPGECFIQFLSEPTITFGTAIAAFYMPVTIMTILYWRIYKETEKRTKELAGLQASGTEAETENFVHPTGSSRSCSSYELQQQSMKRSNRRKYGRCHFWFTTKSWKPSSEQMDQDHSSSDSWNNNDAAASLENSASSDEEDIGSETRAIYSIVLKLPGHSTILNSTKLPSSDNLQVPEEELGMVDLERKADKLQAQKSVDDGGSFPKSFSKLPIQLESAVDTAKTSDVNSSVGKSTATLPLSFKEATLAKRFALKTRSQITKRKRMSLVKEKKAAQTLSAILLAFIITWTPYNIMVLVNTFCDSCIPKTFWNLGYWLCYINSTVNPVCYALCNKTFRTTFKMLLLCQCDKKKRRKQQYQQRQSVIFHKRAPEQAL
Description: CHRM3 Ca++ Flux Assay (agonist mode, FDSS 7000EX). It is filed as cell-based. As to conditions: for M3 FDSS PA: Percent Activity measured to EC100 of Carbachol; for EC50: agonist mode, geometric mean if tested more than once, read-out: M3 FDSS EC50. The procedure, abridged:
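Fluorescent intracellular Ca++ signal, recorded for 3 min, served as read-out for CHO-K1 cells stably carrying human M3 or M5 receptor. Triplicate 11-point dose responses were averaged and fitted to a four-parameter model, with percent activity referenced to the carbachol EC100.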

With `Cc1nc(COc2ccccc2C2CCN([C@@H]3CCC4(C3)CN(C(=O)C3(F)CC3)C4)CC2)no1` (single isomer, unassigned) [Example 7X, (R)-(1-fluorocyclopropyl)(6-(4-(2-((5-methyl-1,2,4-oxadiazol-3-yl)methoxy)phenyl)piperidin-1-yl)-2-azaspiro[3.4]octan-2-yl)methanone or (S)-(1-fluorocyclopropyl)(6-(4-(2-((5-methyl-1,2,4-oxadiazol-3-yl)methoxy)phenyl)piperidin-1-yl)-2-azaspiro[3.4]octan-2-yl)methanone], in assay [1], the “M4 FDSS PA” value amounted to 66% and the EC50 was less than 0.4 nM. Besides, in assay [2], the “M3 FDSS PA” value stood at 0% and the concentration giving a half-maximal response (EC50) was greater than 25000 nM.

For `Cc1nnc(COc2ccccc2C2CCN([C@@H]3CCC4(C3)CN(C(=O)C3(F)CC3)C4)CC2)o1` (single isomer, unassigned) [Example 7Y, (R)-(1-fluorocyclopropyl)(6-(4-(2-((5-methyl-1,3,4-oxadiazol-2-yl)methoxy)phenyl)piperidin-1-yl)-2-azaspiro[3.4]octan-2-yl)methanone or (S)-(1-fluorocyclopropyl)(6-(4-(2-((5-methyl-1,3,4-oxadiazol-2-yl)methoxy)phenyl)piperidin-1-yl)-2-azaspiro[3.4]octan-2-yl)methanone], in assay [1], the “M4 FDSS PA” value is on record as 49% and the EC50 is 22 nM. Besides, in assay [2], the “M3 FDSS PA” value worked out at 0% and the EC50 was greater than 25000 nM.

Take `Cc1nc(COc2ccccc2C2CCN([C@@H]3CCC4(C3)CN(C(=O)C3(F)CC3)C4)CC2)no1` (single isomer, unassigned) [Example 7Z, (R)-(1-fluorocyclopropyl)(6-(4-(2-((5-methyl-1,2,4-oxadiazol-3-yl)methoxy)phenyl)piperidin-1-yl)-2-azaspiro[3.4]octan-2-yl)methanone or (S)-(1-fluorocyclopropyl)(6-(4-(2-((5-methyl-1,2,4-oxadiazol-3-yl)methoxy)phenyl)piperidin-1-yl)-2-azaspiro[3.4]octan-2-yl)methanone]: in assay [1], the “M4 FDSS PA” value stood at 50% and the EC50 is 9 nM. For the same molecule, in assay [2], the “M3 FDSS PA” value was determined as 0% and the EC50 is greater than 25000 nM.

`COc1ccc(Cl)cc1C1CCN([C@H]2CCC3(C2)CN(C(=O)C2(F)CC2)C3)CC1` (single isomer, unassigned) [Example 8A, (S)-(6-(4-(5-chloro-2-methoxyphenyl)piperidin-1-yl)-2-azaspiro[3.4]octan-2-yl)(1-fluorocyclopropyl)methanone or (R)-(6-(4-(5-chloro-2-methoxyphenyl)piperidin-1-yl)-2-azaspiro[3.4]octan-2-yl)(1-fluorocyclopropyl)methanone]: in assay [1], the “M4 FDSS PA” value was determined as 43% and the EC50 is 36 nM. In assay [2], the “M3 FDSS PA” value came out at 0% and the EC50 was greater than 25000 nM.

For `COc1ccc(Cl)cc1C1CCN([C@H]2CCC3(C2)CN(C(=O)C2(F)CC2)C3)CC1` (single isomer, unassigned) [Example 8B, (S)-(6-(4-(5-chloro-2-methoxyphenyl)piperidin-1-yl)-2-azaspiro[3.4]octan-2-yl)(1-fluorocyclopropyl)methanone or (R)-(6-(4-(5-chloro-2-methoxyphenyl)piperidin-1-yl)-2-azaspiro[3.4]octan-2-yl)(1-fluorocyclopropyl)methanone], in assay [1], the “M4 FDSS PA” value was 64% and the EC50 worked out at 1 nM. Moreover, in assay [2], the “M3 FDSS PA” value turned out to be 0% and the EC50 is greater than 25000 nM.

In the case of `O=C(N1CC2(CC[C@@H](N3CCC(c4ccccc4OC(F)(F)F)CC3)C2)C1)C1(F)CC1` (single isomer, unassigned) [Example 9A, (R)-(1-fluorocyclopropyl)(6-(4-(2-(trifluoromethoxy)phenyl)piperidin-1-yl)-2-azaspiro[3.4]octan-2-yl)methanone or (S)-(1-fluorocyclopropyl)(6-(4-(2-(trifluoromethoxy)phenyl)piperidin-1-yl)-2-azaspiro[3.4]octan-2-yl)methanone], in assay [1], the “M4 FDSS PA” value amounted to 36% and the EC50 worked out at 342 nM. In assay [2], the “M3 FDSS PA” value turned out to be 0% and the EC50 was greater than 25000 nM.

`O=C(N1CC2(CC[C@@H](N3CCC(c4ccccc4OC(F)(F)F)CC3)C2)C1)C1(F)CC1` (single isomer, unassigned) [Example 9B, (R)-(1-fluorocyclopropyl)(6-(4-(2-(trifluoromethoxy)phenyl)piperidin-1-yl)-2-azaspiro[3.4]octan-2-yl)methanone or (S)-(1-fluorocyclopropyl)(6-(4-(2-(trifluoromethoxy)phenyl)piperidin-1-yl)-2-azaspiro[3.4]octan-2-yl)methanone]: in assay [1], the “M4 FDSS PA” value worked out at 66% and the EC50 stood at 5 nM. Besides, in assay [2], the “M3 FDSS PA” value came out at 0% and the concentration giving a half-maximal response (EC50) is greater than 25000 nM.

Take `O=C(N1CC2(CC[C@@H](N3CCC(c4cc(F)ccc4OC4CCOCC4)CC3)C2)C1)C1(F)CC1` (single isomer, unassigned) [Example 9C, (R)-(6-(4-(5-fluoro-2-((tetrahydro-2H-pyran-4-yl)oxy)phenyl)piperidin-1-yl)-2-azaspiro[3.4]octan-2-yl)(1-fluorocyclopropyl)methanone or (S)-(6-(4-(5-fluoro-2-((tetrahydro-2H-pyran-4-yl)oxy)phenyl)piperidin-1-yl)-2-azaspiro[3.4]octan-2-yl)(1-fluorocyclopropyl)methanone]: in assay [1], the “M4 FDSS PA” value was found to be 54% and the EC50 came to 1 nM. Also, in assay [2], the “M3 FDSS PA” value is on record as 0% and the EC50 was greater than 25000 nM.

For the molecule `O=C(N1CC2(CC[C@@H](N3CCC(c4cc(F)ccc4OC4CCOCC4)CC3)C2)C1)C1(F)CC1` (single isomer, unassigned) [Example 9D, (R)-(6-(4-(5-fluoro-2-((tetrahydro-2H-pyran-4-yl)oxy)phenyl)piperidin-1-yl)-2-azaspiro[3.4]octan-2-yl)(1-fluorocyclopropyl)methanone or (S)-(6-(4-(5-fluoro-2-((tetrahydro-2H-pyran-4-yl)oxy)phenyl)piperidin-1-yl)-2-azaspiro[3.4]octan-2-yl)(1-fluorocyclopropyl)methanone], in assay [1], the “M4 FDSS PA” value was determined as 43% and the EC50 came out at 75 nM. In addition, in assay [2], the “M3 FDSS PA” value turned out to be 0% and the EC50 is greater than 25000 nM.

In the case of `O=C(N1CC2(CC[C@@H](N3CCC(c4ccccc4OC4CCOCC4)CC3)C2)C1)C1(F)CC1` (single isomer, unassigned) [Example 9E, (R)-(1-fluorocyclopropyl)(6-(4-(2-((tetrahydro-2H-pyran-4-yl)oxy)phenyl)piperidin-1-yl)-2-azaspiro[3.4]octan-2-yl)methanone or (S)-(1-fluorocyclopropyl)(6-(4-(2-((tetrahydro-2H-pyran-4-yl)oxy)phenyl)piperidin-1-yl)-2-azaspiro[3.4]octan-2-yl)methanone], in assay [1], the “M4 FDSS PA” value is 55% and the half-maximal effective concentration (EC50) was found to be 1 nM. Moreover, in assay [2], the “M3 FDSS PA” value is 0% and the EC50 is greater than 25000 nM.
